Measurements published in patent US4962109A, “Insecticidally and acaricidally active pyrimidine esters and intermediates therefor” (Imperial Chemical Industries PLC, priority 1985, dated 1990).
Read-outs that look alike come from different tables or passages of the source.

Assays:
Assay type in all cases: in vivo
[1] = system: Myzus persicae (aphids); assay: Contact test on aphids (MP), Chinese Cabbage leaf, mortality; conditions: 72 h, read-out: MP grading of mortality
Summary of the method: (§1)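 Compound dissolved in acetone, diluted with water containing 0.01% by weight wetting agent to 500, 250 or 100 ppm. Pests held on host plant or foodstuff; pests and/or medium treated. Mortality scored one to three days later as grade A (80-100%), B (50-79%) or C (<50%) mortality or knockdown.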

[2] = system: Musca domestica (houseflies - adults); assay: Contact test on houseflies - adults (MD), Cotton wool/sugar, mortality; conditions: 72 h, read-out: MD grading of mortality
Summary of the method: as §1

[3] = system: Blattella germanica (cockroach nymphs); assay: Contact test on cockroach nymphs (BG/C), Plastic pot, mortality; conditions: 48 h, read-out: BG/C grading of mortality
Summary of the method: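 Cockroach nymphs and/or their medium were treated with aqueous preparations at 500, 250 or 100 ppm (acetone solution diluted in water with 0.01% Lissapol NX wetting agent). Mortality or knockdown was assessed typically 1–3 days later and graded A (80–100%), B (50–79%) or C (<50%).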

[4] = system: Nephotettix cincticeps (green leaf hopper - nymphs); assay: Contact test on green leaf hopper nymphs (NC), Rice plant, mortality; conditions: 48 h, read-out: NC grading of mortality
Summary of the method: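 Product dissolved in acetone, diluted in water with 0.01% wetting agent to 500, 250 or 100 ppm; nymphs and/or host rice plants treated. Mortality or knockdown assessed 1–3 days later, graded A (80-100%), B (50-79%), C (<50%).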

[5] = system: Tetranychus urticae (spider mites - ova); assay: Contact test on spider mites - ova (TUe), French bean leaf, mortality; conditions: 144 h, read-out: TUe grading of mortality
Summary of the method: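 Graded read-out: A 80-100%, B 50-79%, C below 50% mortality or knockdown, assessed usually 1-3 days post-treatment. Liquid preparations at 500, 250 or 100 ppm by weight, from acetone solution diluted in water with 0.01% wetting agent, applied to pests and/or their host plant or food medium.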

[6] = system: Heliothis virescens (tobacco budworm - larvae); assay: Residual test on tobacco budworm larvae (HV), Cotton leaf, mortality; conditions: 48 h, read-out: HV grading of mortality
Summary of the method: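 Product in acetone diluted with water containing 0.01% Lissapol NX, at 500, 250 or 100 ppm; pests and/or host medium (here cotton leaf) treated. Mortality scored one to three days later, graded A (80-100%), B (50-79%), C (<50%).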

[7] = system: Musca domestica (houseflies - adults); assay: Knockdown test on houseflies - adults (MD/KD), Cotton wool/sugar; conditions: 500 ppm, 4 hours, read-out: MD/KD grading of knockdown
Summary of the method: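 Adult houseflies exposed to the compound at 500, 250 or 100 ppm in acetone/water with 0.01% wetting agent, on a cotton wool/sugar medium. Knockdown and mortality assessed, graded A (80-100%), B (50-79%) or C (<50%).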

[8] = system: Diabrotica balteata (rootworm larvae); assay: Residual test on rootworm larvae (DB), Filter paper/maize seed, mortality; conditions: 48 h, read-out: DB grading of mortality
Summary of the method: as §1

[9] = system: Tetranychus urticae (spider mites - adult); assay: Contact test on spider mites - adult (TUa), French bean leaf, mortality; conditions: 72 h, read-out: TUa grading of mortality
Summary of the method: as §1

[10] = system: Spodoptera exigua (lesser army worm - larvae); assay: Residual test on lesser army worm larvae (SP), Cotton leaf, mortality; conditions: 48 h, read-out: SP grading of mortality
Summary of the method: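 Product dissolved in acetone and diluted in water with 0.01% wetting agent to 500, 250 or 100 ppm; larvae and/or cotton leaf host treated. Mortality or knockdown scored one to three days later and graded A (80-100%), B (50-79%) or C (<50%).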

Structure (SMILES)	mortality at 500 ppm ([1]; 500 ppm, contact, 3 days) [%]	mortality at 500 ppm ([2]; 500 ppm, contact, 3 days) [%]	mortality at 500 ppm ([3]; 500 ppm, contact, 2 days) [%]	mortality at 500 ppm ([4]; 500 ppm, contact, 2 days) [%]	mortality at 500 ppm ([5]; 500 ppm, contact, 6 days) [%]	mortality at 500 ppm [6] [%]	pest or weed control at 500 ppm [7] [%]	mortality at 500 ppm ([8]; 500 ppm, residual, 2 days) [%]	mortality at 500 ppm ([9]; 500 ppm, contact, 3 days) [%]	mortality at 500 ppm ([10]; 500 ppm, residual, 2 days) [%]	mortality at 500 ppm [1] [%]	mortality at 500 ppm [2] [%]	mortality at 500 ppm [3] [%]	mortality at 500 ppm [4] [%]	mortality at 500 ppm [5] [%]	mortality at 500 ppm [8] [%]	mortality at 500 ppm [9] [%]	mortality at 500 ppm [10] [%]
COCc1c(F)c(F)c(COC(=O)C(c2cnc(C3(C)CCCCC3)nc2)C(C)(C)C)c(F)c1F (racemic) [Compound 207, 2,3,5,6-tetrafluoro-4-(methoxymethyl)benzyl (RS)-2-[2-(1-methylcyclohexyl)pyrimidin-5-yl]-3,3-dimethylbutanoate]	80 to 100	< 50	< 50	80 to 100	< 50	< 50	80 to 100	< 50	80 to 100	< 50	–	–	–	–	–	–	–	–
COCc1c(F)c(F)c(COC(=O)C(c2cnc(-c3ccccc3Cl)nc2)C(C)(C)C)c(F)c1F (racemic) [Compound 208, 2,3,5,6-tetrafluorbenzyl-4-(methoxymethyl)-benzyl (RS)-2-[2-(2-chlorophenyl)pyrimidin-5-yl]-3,3-dimethylbutanoate]	80 to 100	< 50	< 50	80 to 100	< 50	< 50	< 50	< 50	80 to 100	< 50	–	–	–	–	–	–	–	–
CC(C)(C)C(C(=O)OCc1ccc(F)c(Oc2ccccc2)c1)c1cnc(-c2ccccc2Cl)nc1 (racemic) [Compound 209, 4-fluoro-3-phenoxybenzyl (RS)-2-[2-(2-chlorophenyl)pyrimidin-5-yl]-3,3-dimethylbutanoate]	50 to 79	< 50	< 50	< 50	< 50	80 to 100	< 50	< 50	80 to 100	50 to 79	–	–	–	–	–	–	–	–
C=CC(C)(C)C(C(=O)OCc1c(F)c(F)c(COC)c(F)c1F)c1cnc(C(C)(C)C)nc1 (racemic) [Compound 211, 4-(methoxymethyl)-2,3,5,6-tetrafluorobenzyl (RS)-2-[2-(1,1-dimethylethyl)pyrimidin-5-yl]-3,3-dimethylpent-4-enoate]	80 to 100	< 50	< 50	80 to 100	80 to 100	< 50	80 to 100	< 50	80 to 100	80 to 100	–	–	–	–	–	–	–	–
C=CCC(C(=O)OCc1c(F)c(F)c(COC)c(F)c1F)c1cnc(C(C)(C)C)nc1 (racemic) [Compound 212, 4-(methoxymethyl)-2,3,5,6-tetrafluorobenzyl (RS)-2-[2-(1,1-dimethylethyl)pyrimidin-5-yl]pent-4-enoate]	80 to 100	< 50	< 50	80 to 100	< 50	< 50	80 to 100	< 50	80 to 100	50 to 79	–	–	–	–	–	–	–	–
COCc1c(F)c(F)c(COC(=O)C(c2cnc(C(C)(C)C)nc2)C(F)(F)F)c(F)c1F (racemic) [Compound 213, 4-(methoxymethyl)-2,3,5,6-tetrafluorobenzyl (RS)-2-[2-(1,1-dimethylethyl)pyrimidin-5-yl]-3,3,3-trifluoropropionate]	50 to 79	< 50	50 to 79	< 50	< 50	< 50	80 to 100	< 50	80 to 100	< 50	–	–	–	–	–	–	–	–
CC(C)(C)c1ncc(C(C(=O)OCc2c(F)c(F)c(CC3CC3(Cl)Cl)c(F)c2F)C(C)(C)C)cn1 (racemic) [Compound 216, 4-[(2,2-dichlorocyclopropyl)methyl]-2,3,5,6-tetrafluorobenzyl (RS)-2-[2-(1,1-dimethylethyl)pyrimidin-5-yl]-3,3-dimethylbutanoate]	< 50	< 50	< 50	50 to 79	< 50	< 50	< 50	< 50	80 to 100	50 to 79	–	–	–	–	–	–	–	–
COCc1c(F)c(F)c(COC(=O)C(c2cnc(C(C)(C)C)nc2)C(C)(C)C)c(F)c1OC (racemic) [Compound 217, 2,3,6-trifluoro-5-methoxy-4-(methmethyl)-benzyl (RS)-2-[2-(1,1-dimethylethyl)pyrimidin-5-yl]-3,3-dimethylbutanoate]	80 to 100	80 to 100	< 50	80 to 100	< 50	80 to 100	80 to 100	< 50	80 to 100	80 to 100	–	–	–	–	–	–	–	–
CC[Si](CC)(CC)CCCc1c(F)c(F)c(COC(=O)C(c2cnc(C(C)(C)C)nc2)C(C)(C)C)c(F)c1F (racemic) [Compound 218, 4-[3-(triethylsilyl)prop-1-yl]-2,3,5,6-tetrafluorobenzyl (RS)-2-[2-(1,1-dimethylethyl)pyrimidin-5-yl]-3,3-dimethylbutanoate]	–	–	–	–	–	< 50	< 50	–	–	–	80 to 100	< 50	< 50	80 to 100	< 50	< 50	80 to 100	< 50
C#CCSCc1c(F)c(F)c(COC(=O)C(c2cnc(C(C)(C)C)nc2)C(C)(C)C)c(F)c1F (racemic) [Compound 220]	80 to 100	80 to 100	< 50	80 to 100	< 50	< 50	80 to 100	50 to 79	80 to 100	50 to 79	–	–	–	–	–	–	–	–
